One assay concerns asthmatic sheep. As to the kind of experiment: Treatment of asthmatic sheep (Ascaris suum antigen, double blind cross-over). The following applies: for PC400, carbachol dosage required to increase SRL 4-fold: 24 hours after challenge, pre-challenge values about 20-23 BU; for specific lung resistance (SRL) after challenge: nebulized 1 mg/kg twice a day for three days, 0.5 hours prior to and four hours post challenge on day 4, FIG. 7. The assay is classed as in vivo. The protocol: Six asthmatic sheep were treated in a double blind cross-over study. […] This study was carried out generally as described in Abraham et al., J. Clin. Invest., 93:776-787 (1994).
The inhibitor compound used here was Compound ID No. 896.52, N-phenylacetyl-Leu-Asp-Phe-D-Pro-NH2, with a control compound that comprised the previously described compound having the same residues in a scrambled sequence. The vehicle for the nebulized compounds was phosphate-buffered saline. The compounds were administered at a dose of 1 mg/kg each, twice a day for three days prior to challenge, as well as 0.5 hours prior to and four hours post challenge on day 4. Because this was a crossover study, each animal received one or the other treatment, followed by a rest and then the other treatment. Each animal therefore served as its own control.
Post challenge airway responsiveness was also assayed. Here, specific lung resistance, SRL, returned to baseline values 24 hours after challenge, however, the sheep were hyperresponsive to inhaled carbachol at that time.

Assay [1] concerns New Zealand white rabbits. As to the kind of experiment: Rabbit heterotopic cardiac allograft model. For Expression on Coronary Arteries: ICAM-1: key: -: negative; ±: minimal; +: little; ++: moderately abundant; +++: very abundant. For Expression on Coronary Arteries: Macrophages: key: -: negative; ±: minimal; +: little; ++: moderately abundant; +++: very abundant. For Expression on Coronary Arteries: T cells: key: -: negative; ±: minimal; +: little; ++: moderately abundant; +++: very abundant. For Expression on Coronary Arteries: Total Fibronectin: key: -: negative; ±: minimal; +: little; ++: moderately abundant; +++: very abundant. Format: in vivo. The following applies: for Expression on Coronary Arteries: ICAM-1 / Expression on Coronary Arteries: Macrophages / Expression on Coronary Arteries: T cells / Expression on Coronary Arteries: Total Fibronectin / Expression on Coronary Arteries: VCAM-1 / Expression on Coronary Arteries: MHC Class II: 1 mg/kg s.c., allograft, 7 to 8 days; for Expression on Coronary Arteries: MHC Class II: immunohistochemistry. The source says:
New Zealand white rabbit SPF hearts were allografted into the necks of similar rabbits to assay a graft-vs-host immunorejection model and the affect of a contemplated compound on that immunoinflammatory response.
New Zealand white female rabbits (Charles River Lab., Saint Laurent, Quebec), between 3.5 and 4 kg underwent heterotopic cardiac transplant following an experimental protocol previously described [Alonso et al., Am. J. Pathol., 87:415-442 (1977); Clausell et al., Circulation, 89:2768-2779 (1994)]. The animals were unselected to favor an HLA-mismatch, the host rabbits were Pasteurella-free and the donors, outbred animals. Both host and donor rabbits were fed Purina 5321-0.5 percent cholesterol diet (Research Diets Inc., New Brunswick, N.J.), a strategy that has proven useful in accelerating the process of allograft arteriopathy [Alonso et al., Am. J. Pathol., 87:415-442 (1977)]. The diet was commenced four days prior to the transplant and continued in the recipient of the transplant until the completion of the experimental period.
The technique of heterotopic cardiac transplantation has been previously described [Clausell et al., Circulation, 89:2768-2779 (1994)]. Briefly, a vertical incision was performed in the anterior aspect of the neck of the recipient rabbit and the left common carotid artery and the ipsilateral external jugular vein were isolated. The cardiac allograft was placed in the neck by anastomosing the aorta end-to-side to the recipient's carotid artery and the pulmonary end-to-side to the recipient's external jugular vein, following a total period of ischemia for the donor hearts of approximately 30 minutes. Postoperative care was in compliance with the Principles of Laboratory Animal Care formulated by the Canadian National Society for Medical Research.
Beginning the day of the transplant, the animals were randomized and treated with either scrambled compound (control group) at 1 mg/kg s.c. or the inhibitor compound at 1 mg/kg s.c. The doses of the compounds were empirically extrapolated to the in vivo model based on preliminary in vitro studies, of Table 1. No other immunosuppression therapy was administered. The grafts were monitored daily by palpation and maintained for 7 to 8 days, a previously described endpoint that was associated with myocardial rejection (impaired cardiac contractility) and development of the allograft arteriopathy in this model [Clausell et al., Circulation, 89:2768-2779 (1994)]. A total of fourteen animals were studied in the control (n=7) and treated (n=7) groups.
The animals were sacrificed using a lethal dose of euthanol (480 mg i.v.) (MTC Pharmaceutical, Cambridge, ON), host and donor hearts were removed, and the coronary arteries were perfused with saline through the aorta, followed by light fixation by perfusion with 2 percent paraformaldehyde (Sigma, St, Louis, Mo.). […] Different sections of the hearts were either saved in 10 percent formalin (BDH Inc., Toronto, ON) for light microscopy studies or immediately frozen in O.T.C. Compound Tissue Tek (Miles Inc., Elkart, Ind.) for specific immunohistochemistry studies.
Tissue specimens from the donor hearts were stained with hematoxylin:eosin for histological grading of rejection according to a modified Billingham's criteria [Billingham, Hum. Pathol., 10:367-386 (1979)]. The sections were graded by a pathologist without knowledge of whether the donor hearts came from control or inhibitor compound treated animals.
Three different paraffin-embedded tissue sections from host and donor hearts from both control and treated rabbits were stained by the Movat pentachrome method for light microscopy. Morphometric analysis was performed using a Zeiss microscope attached to a computer-generated video analysis system (Perceptics Inc., NuVision software), as described in Clausell et al., Circulation, 89:2768-2779 (1994). […]

Square brackets hold non-standard residues; d marks the D form. Peptide text beside a SMILES is read from it. * marks the point of attachment. PhAc = O=C(Cc1ccccc1)*

In the case of `CC(C)C[C@H](NC(=O)Cc1ccccc1)C(=O)N[C@@H](CC(=O)O)C(=O)N[C@@H](Cc1ccccc1)C(=O)N1CCC[C@@H]1C(N)=O` [896.52, N-phenylacetyl-Leu-Asp-Phe-D-Pro-NH2] (PhAc-LDF[dP]-NH2), in the assay with asthmatic sheep, the “PC400, carbachol dosage required to increase SRL 4-fold” value is listed as “about 27 BU” and the “specific lung resistance (SRL) after challenge” value is given as “less of a change from baseline specific lung resistance”. In assay [1], the “Expression on Coronary Arteries: ICAM-1” value is reported as “±”, the “Expression on Coronary Arteries: Macrophages” value is listed as “±”, the “Expression on Coronary Arteries: T cells” value is listed as “±” and the “Expression on Coronary Arteries: Total Fibronectin” value is on record as “±”. Besides, in assay [1], the “Expression on Coronary Arteries: VCAM-1” value is on record as “±”, the “Expression on Coronary Arteries: MHC Class II” value was “±”, the “Baseline (rabbit own host heart) of incidence of intimal thickening” value is 12% and the “Baseline (rabbit own host heart) of severity of intimal thickening” value amounted to 12%.

Consider `CC(C)C[C@H](NC(=O)[C@H](CC(=O)O)NC(=O)Cc1ccccc1)C(=O)N[C@@H](Cc1ccccc1)C(=O)N1CCC[C@@H]1C(N)=O` [N-phenylacetyl-Asp-Leu-Phe-D-Pro-NH2, reference compound] (PhAc-DLF[dP]-NH2), for which, in the assay on asthmatic sheep, the “PC400, carbachol dosage required to increase SRL 4-fold” value is “about 12 BU” and the “specific lung resistance (SRL) after challenge” value is on record as “had an increase in that pulmonary function”. Further, in assay [1], the “Expression on Coronary Arteries: ICAM-1” value is “+”, the “Expression on Coronary Arteries: Macrophages” value is on record as “+”, the “Expression on Coronary Arteries: T cells” value was “++” and the “Expression on Coronary Arteries: Total Fibronectin” value was “++”. In addition, in assay [1], the “Expression on Coronary Arteries: VCAM-1” value is recorded as “+”, the “Expression on Coronary Arteries: MHC Class II” value was “++”, the “Baseline (rabbit own host heart) of incidence of intimal thickening” value worked out at 1% and the “Baseline (rabbit own host heart) of severity of intimal thickening” value came to 12%.
